Experimental findings from ChEMBL document CHEMBL1135332, “Synthesis and cytotoxic activity of pyridazino[1',6':1,2]pyrido[3,4-b]indol-5-inium derivatives as anti-cancer agents” (Bioorg Med Chem Lett, 2002) are described below.

The subject of test [1] is L1210. As to the kind of experiment: Inhibitory concentration required against L1210 leukemia cells. It counts as functional, cell-based. Particulars: Mus musculus.
For test [2], the system named is L1210. As to the kind of experiment: Effect on L1210 cell cycle was determined and percent of treated cells in the G1 phase of L1210 leukemia cells was determined. It counts as functional, Mus musculus.
The test system of test [3] is L1210. Particulars: Mus musculus.
Description: Effect on L1210 cell cycle was determined and percent of treated cells in the G1 phase of L1210 leukemia cells was determined; NS implies not significant.
In test [4] the test system is L1210. Conditions: Mus musculus. This is another data set of the same source.
Description: Effect on L1210 cell cycle was determined and percent of treated cells in the G2M phase of L1210 leukemia cells was determined; NS implies not significant.
Test [5] deals with L1210. The test can be described thus: Effect of compound on L1210 cell cycle was determined and percent of treated cells in the G2M phase of L1210 leukemia cells was determined. It counts as functional, Mus musculus.
Test [6] has as its system L1210. The test can be described thus: Effect of compound on L1210 cell cycle was determined and percent of treated cells in the G2M phase of L1210 leukemia cells. It counts as functional, Mus musculus.
Test [7] concerns L1210. The test can be described thus: Cytotoxic concentration against L1210 leukemia cells was determined; 30% apoptosis ([…]) was observed. It counts as functional, cell-based. Particulars: Mus musculus.

Turning to `CCCCCn1c2cc(OC)ccc2c2cc[n+]3nc(CC)c(CC)cc3c21`, in test [1], the IC50 – broadly, the concentration that inhibits the measured activity by half – is 65 nM. Moreover, the Treated cells in test [2] was found to be 60%.

In the case of `CCc1cc2c3[nH]c4cc(O)ccc4c3cc[n+]2nc1CC`, in test [1], the IC50 amounted to 10000 nM. For the same compound, the Treated cells result in test [3] and in test [4] was “Not significant” throughout.

As to `COc1cccc2c1C(=O)c1c(O)c3c(c(O)c1C2=O)C[C@@](O)(C(=O)CO)C[C@@H]3O[C@H]1C[C@H](N)[C@H](O)[C@H](C)O1` [DOXORUBICIN], the Treated cells in test [5] is 81%.

On to `COc1ccc2c(c1)[nH]c1c2cc[n+]2nc(C)c(C)cc12`, for which the Treated cells in test [6] came to 38%. The compound also had a 50% inhibitory concentration (IC50) in test [1] of 1300 nM.

For `CCc1cc2c3[nH]c4cc(OCc5ccccc5)ccc4c3cc[n+]2nc1CC.[Br-]`, inhibition in test [1] was half-maximal at 1900 nM (IC50). The compound also registered a Treated cells in test [2] of 54%.

In test [1], `CCOC(=O)CCCn1c2cc(OC)ccc2c2cc[n+]3nc(CC)c(CC)cc3c21` gave an IC50 of 2000 nM. The Treated cells entry in test [3] and in test [4] was “Not significant” each time.

`CCc1cc2c3[nH]c4c([N+](=O)[O-])cccc4c3cc[n+]2nc1CC` registered a 50% inhibitory concentration (IC50) in test [1] of 1500 nM. For the same compound, the Concentration in test [7] came out at 5 µM. Moreover, the Treated cells entry in test [3] and in test [4] was “Not significant” in each case.

For `CCOC(=O)Cn1c2cc(OC)ccc2c2cc[n+]3nc(CC)c(CC)cc3c21`, in test [5], the Treated cells is listed as 46%. The compound further showed a half-maximal inhibitory concentration (IC50) in test [1] of 1100 nM.

On to `CCc1cc2c3[nH]c4ccc([N+](=O)[O-])cc4c3cc[n+]2nc1CC`, for which the half-maximal inhibitory concentration (IC50) in test [1] was 15300 nM. Moreover, the Treated cells result in test [3] and in test [4] was “Not significant” throughout.

In test [1], `CCc1cc2c3[nH]c4c(N)cccc4c3cc[n+]2nc1CC` came in with a half-inhibitory concentration (IC50) of 1000 nM. This compound displayed a Concentration in test [7] of 5 µM. The Treated cells entry in test [3] and in test [4] was “Not significant” each time.

Turning to `Cc1cc2c3[nH]c4cc(OCc5ccccc5)ccc4c3cc[n+]2nc1C`, the IC50 in test [1] turned out to be 5200 nM. Besides, the Treated cells entry in test [3] and in test [4] was “Not significant” throughout.

`CCc1cc2c3[nH]c4ccc(Br)cc4c3cc[n+]2nc1CC` registered a half-maximal inhibitory concentration (IC50) in test [1] of 2300 nM. Further, the Treated cells entry in test [3] and in test [4] was “Not significant” in each case.

In turn, `CCOC(=O)Cn1c2cc(OC)ccc2c2cc[n+]3nc(C)c(C)cc3c21` yielded an IC50 in test [1] of 5000 nM. The Treated cells result in test [3] and in test [4] was “Not significant” in each case.

Compound `CC[C@@]1(O)C(=O)OCc2c1cc1n(c2=O)Cc2cc3ccccc3nc2-1` [CAMPTOTHECIN] came in with a Treated cells in test [5] of 80%. This compound also showed a concentration for half-maximal inhibition (IC50) in test [1] of 30 nM.

On to `CCc1cc2c3c(cc[n+]2nc1CC)c1ccc(OC)cc1n3C`, for which the 50% inhibitory concentration (IC50) in test [1] is 1100 nM. Moreover, the Treated cells in test [2] is listed as 65%.

`CCCCCn1c2cc(OC)ccc2c2cc[n+]3nc(C)c(C)cc3c21` had an IC50 in test [1] of 48 nM. In test [2], the Treated cells is reported as 57%.

In test [6], `CCc1cc2c3[nH]c4cc(OC)ccc4c3cc[n+]2nc1CC` registered a Treated cells of 35%. The same compound came in with a 50% inhibitory concentration (IC50) in test [1] of 2000 nM.

Consider `CCc1cc2c3c(cc[n+]2nc1CC)c1ccccc1n3CCCBr`, for which the half-inhibitory concentration (IC50) in test [1] turned out to be 1900 nM. In addition, the Treated cells entry in test [3] and in test [4] was “Not significant” each time.

Consider `C#CCCCn1c2cc(OC)ccc2c2cc[n+]3nc(-c4ccco4)c(-c4ccco4)cc3c21`, for which the IC50 in test [1] stood at 1300 nM. Besides, in test [2], the Treated cells is given as 54%.

Compound `COc1ccc2c3cc[n+]4nc(/C=C/[Si](C(C)C)(C(C)C)C(C)C)c(/C=C/[Si](C(C)C)(C(C)C)C(C)C)cc4c3n(C)c2c1` returned a half-inhibitory concentration (IC50) in test [1] of 2300 nM.

Compound `C#CCNC(=O)Cn1c2cc(OC)ccc2c2cc[n+]3nc(CC)c(CC)cc3c21` yielded a half-maximal inhibitory concentration (IC50) in test [1] of 72900 nM.

In turn, `C#CCNC(=O)Cn1c2ccccc2c2cc[n+]3nc(-c4cccc5ccccc45)c(-c4cccc5ccccc45)cc3c21` came in with an IC50 in test [1] of 10400 nM. Further, the Treated cells entry in test [3] and in test [4] was “Not significant” in each case.
